Measured values as given in the supplement of paper PMC13380429.

Tests used:
Conditions in all cases: 72 h
[1] = test system: HepG2; assay: relative viability EC50 (midpoint between 100% and the lowest measured viability); higher = less toxic
[2] = test system: Calu-3; assay: as above
[3] = test system: U2OS; assay: as above
[4] = test system: Vero E6; assay: as above
[5] = test system: Caco-2; assay: as above
[6] = test system: HepG2; assay: drug sensitivity score (DSS) for viability; higher = more toxic; extreme values may be limits of the assay
[7] = test system: Calu-3; assay: as above
[8] = test system: U2OS; assay: as above
[9] = test system: Vero E6; assay: as above
[10] = test system: Caco-2; assay: as above
[11] = test system: HepG2; assay: cell viability relative to DMSO; higher = less toxic
[12] = test system: Calu-3; assay: as above
[13] = test system: U2OS; assay: as above
[14] = test system: Vero E6; assay: as above
[15] = test system: Caco-2; assay: as above

SMILES: O=C1C(=Cc2cccnc2)C(=O)c2ccccc21 [PRT4165]
- relative viability EC50 [1]: > 10 µM
- relative viability EC50 [2]: > 10 µM
- relative viability EC50 [3]: > 10 µM
- relative viability EC50 [4]: > 10 µM
- relative viability EC50 [5]: > 10 µM
- drug sensitivity score [6]: 0
- drug sensitivity score [7]: 0
- drug sensitivity score [8]: 0
- drug sensitivity score [9]: 0.2
- drug sensitivity score [10]: 0
- cell viability ([11]; 1 nM): 113%
- cell viability ([11]; 10 nM): 98.5%
- cell viability ([11]; 100 nM): 92.1%
- cell viability ([11]; 1000 nM): 103%
- cell viability ([11]; 10000 nM): 87.6%
- cell viability ([12]; 1 nM): 104%
- cell viability ([12]; 10 nM): 103%
- cell viability ([12]; 100 nM): 98.4%
- cell viability ([12]; 1000 nM): 97.4%
- cell viability ([12]; 10000 nM): 95.6%
- cell viability ([13]; 1 nM): 102%
- cell viability ([13]; 10 nM): 98.9%
- cell viability ([13]; 100 nM): 99.1%
- cell viability ([13]; 1000 nM): 99.6%
- cell viability ([13]; 10000 nM): 98.3%
- cell viability ([14]; 1 nM): 96.1%
- cell viability ([14]; 10 nM): 99%
- cell viability ([14]; 100 nM): 103%
- cell viability ([14]; 1000 nM): 98.4%
- cell viability ([14]; 10000 nM): 87.6%
- cell viability ([15]; 1 nM): 107%
- cell viability ([15]; 10 nM): 86.5%
- cell viability ([15]; 100 nM): 101%
- cell viability ([15]; 1000 nM): 87.1%
- cell viability ([15]; 10000 nM): 98.2%

SMILES: COc1ccc(S(=O)(=O)Nc2nc(-c3cccc([N+](=O)[O-])c3)cs2)cc1OC [Ro-61-8048]
- relative viability EC50 [1]: > 10 µM
- relative viability EC50 [2]: > 10 µM
- relative viability EC50 [3]: > 10 µM
- relative viability EC50 [4]: > 10 µM
- relative viability EC50 [5]: > 10 µM
- drug sensitivity score [6]: 0
- drug sensitivity score [7]: 0
- drug sensitivity score [8]: 0
- drug sensitivity score [9]: 0
- drug sensitivity score [10]: 0
- cell viability ([11]; 1 nM): 107%
- cell viability ([11]; 10 nM): 86.1%
- cell viability ([11]; 100 nM): 101%
- cell viability ([11]; 1000 nM): 102%
- cell viability ([11]; 10000 nM): 106%
- cell viability ([12]; 1 nM): 107%
- cell viability ([12]; 10 nM): 89.5%
- cell viability ([12]; 100 nM): 103%
- cell viability ([12]; 1000 nM): 97.9%
- cell viability ([12]; 10000 nM): 124%
- cell viability ([13]; 1 nM): 98.6%
- cell viability ([13]; 10 nM): 93.5%
- cell viability ([13]; 100 nM): 99.4%
- cell viability ([13]; 1000 nM): 100%
- cell viability ([13]; 10000 nM): 106%
- cell viability ([14]; 1 nM): 101%
- cell viability ([14]; 10 nM): 97.2%
- cell viability ([14]; 100 nM): 85.1%
- cell viability ([14]; 1000 nM): 102%
- cell viability ([14]; 10000 nM): 97.9%
- cell viability ([15]; 1 nM): 133%
- cell viability ([15]; 10 nM): 90.8%
- cell viability ([15]; 100 nM): 110%
- cell viability ([15]; 1000 nM): 124%
- cell viability ([15]; 10000 nM): 95.8%

SMILES: Cc1ccc(S(=O)(=O)N2CCC[C@H]2c2ccc(F)cc2)cc1 [Ro-67-7476]
- relative viability EC50 [1]: > 10 µM
- relative viability EC50 [2]: > 10 µM
- relative viability EC50 [3]: > 10 µM
- relative viability EC50 [4]: > 10 µM
- relative viability EC50 [5]: > 10 µM
- drug sensitivity score [6]: 0
- drug sensitivity score [7]: 0
- drug sensitivity score [8]: 0
- drug sensitivity score [9]: 0
- drug sensitivity score [10]: 0
- cell viability ([11]; 1 nM): 106%
- cell viability ([11]; 10 nM): 104%
- cell viability ([11]; 100 nM): 96.2%
- cell viability ([11]; 1000 nM): 102%
- cell viability ([11]; 10000 nM): 97.4%
- cell viability ([12]; 1 nM): 106%
- cell viability ([12]; 10 nM): 101%
- cell viability ([12]; 100 nM): 94.4%
- cell viability ([12]; 1000 nM): 98.1%
- cell viability ([12]; 10000 nM): 105%
- cell viability ([13]; 1 nM): 98.8%
- cell viability ([13]; 10 nM): 95.1%
- cell viability ([13]; 100 nM): 107%
- cell viability ([13]; 1000 nM): 99.4%
- cell viability ([13]; 10000 nM): 99.2%
- cell viability ([14]; 1 nM): 109%
- cell viability ([14]; 10 nM): 104%
- cell viability ([14]; 100 nM): 94.1%
- cell viability ([14]; 1000 nM): 104%
- cell viability ([14]; 10000 nM): 100%
- cell viability ([15]; 1 nM): 96.6%
- cell viability ([15]; 10 nM): 102%
- cell viability ([15]; 100 nM): 102%
- cell viability ([15]; 1000 nM): 97.3%
- cell viability ([15]; 10000 nM): 104%

SMILES: Fc1ccc(Cl)cc1-c1nc(Nc2ccncc2)c2nccnc2n1 [SD-208]
- relative viability EC50 [1]: > 10 µM
- relative viability EC50 [2]: > 10 µM
- relative viability EC50 [3]: > 10 µM
- relative viability EC50 [4]: > 10 µM
- relative viability EC50 [5]: > 10 µM
- drug sensitivity score [6]: 0
- drug sensitivity score [7]: 0
- drug sensitivity score [8]: 0
- drug sensitivity score [9]: 0.4
- drug sensitivity score [10]: 0
- cell viability ([11]; 1 nM): 107%
- cell viability ([11]; 10 nM): 107%
- cell viability ([11]; 100 nM): 103%
- cell viability ([11]; 1000 nM): 95.6%
- cell viability ([11]; 10000 nM): 98.2%
- cell viability ([12]; 1 nM): 107%
- cell viability ([12]; 10 nM): 94.9%
- cell viability ([12]; 100 nM): 111%
- cell viability ([12]; 1000 nM): 105%
- cell viability ([12]; 10000 nM): 103%
- cell viability ([13]; 1 nM): 103%
- cell viability ([13]; 10 nM): 101%
- cell viability ([13]; 100 nM): 96.5%
- cell viability ([13]; 1000 nM): 90.1%
- cell viability ([13]; 10000 nM): 91.2%
- cell viability ([14]; 1 nM): 102%
- cell viability ([14]; 10 nM): 103%
- cell viability ([14]; 100 nM): 106%
- cell viability ([14]; 1000 nM): 96.5%
- cell viability ([14]; 10000 nM): 86.2%
- cell viability ([15]; 1 nM): 108%
- cell viability ([15]; 10 nM): 102%
- cell viability ([15]; 100 nM): 104%
- cell viability ([15]; 1000 nM): 93.4%
- cell viability ([15]; 10000 nM): 93.2%

SMILES: C=C(C)CN1CC[C@]23c4c5ccc(O)c4O[C@H]2c2[nH]c4ccccc4c2C[C@@]3(O)C1C5 [SDM25N]
- relative viability EC50 [1]: > 10 µM
- relative viability EC50 [2]: > 10 µM
- relative viability EC50 [3]: > 10 µM
- relative viability EC50 [4]: > 10 µM
- relative viability EC50 [5]: > 10 µM
- drug sensitivity score [6]: 0.4
- drug sensitivity score [7]: 0.2
- drug sensitivity score [8]: 0
- drug sensitivity score [9]: 0
- drug sensitivity score [10]: 0.1
- cell viability ([11]; 1 nM): 92.7%
- cell viability ([11]; 10 nM): 101%
- cell viability ([11]; 100 nM): 100%
- cell viability ([11]; 1000 nM): 102%
- cell viability ([11]; 10000 nM): 80.7%
- cell viability ([12]; 1 nM): 92.8%
- cell viability ([12]; 10 nM): 86.2%
- cell viability ([12]; 100 nM): 93.5%
- cell viability ([12]; 1000 nM): 110%
- cell viability ([12]; 10000 nM): 82.4%
- cell viability ([13]; 1 nM): 93.7%
- cell viability ([13]; 10 nM): 100%
- cell viability ([13]; 100 nM): 100%
- cell viability ([13]; 1000 nM): 101%
- cell viability ([13]; 10000 nM): 91.8%
- cell viability ([14]; 1 nM): 90.7%
- cell viability ([14]; 10 nM): 93.1%
- cell viability ([14]; 100 nM): 95.6%
- cell viability ([14]; 1000 nM): 96.6%
- cell viability ([14]; 10000 nM): 88.8%
- cell viability ([15]; 1 nM): 92.9%
- cell viability ([15]; 10 nM): 102%
- cell viability ([15]; 100 nM): 89.9%
- cell viability ([15]; 1000 nM): 101%
- cell viability ([15]; 10000 nM): 86.4%

SMILES: CCN(CC)CCOC(=O)c1cc(Cl)c(N)cc1OC [SDZ-205-557]
- relative viability EC50 [1]: > 10 µM
- relative viability EC50 [2]: > 10 µM
- relative viability EC50 [3]: > 10 µM
- relative viability EC50 [4]: > 10 µM
- relative viability EC50 [5]: > 10 µM
- drug sensitivity score [6]: 0
- drug sensitivity score [7]: 0
- drug sensitivity score [8]: 0
- drug sensitivity score [9]: 0
- drug sensitivity score [10]: 0
- cell viability ([11]; 1 nM): 105%
- cell viability ([11]; 10 nM): 97.1%
- cell viability ([11]; 100 nM): 90.6%
- cell viability ([11]; 1000 nM): 93.3%
- cell viability ([11]; 10000 nM): 102%
- cell viability ([12]; 1 nM): 107%
- cell viability ([12]; 10 nM): 101%
- cell viability ([12]; 100 nM): 88%
- cell viability ([12]; 1000 nM): 96.6%
- cell viability ([12]; 10000 nM): 90.1%
- cell viability ([13]; 1 nM): 98.9%
- cell viability ([13]; 10 nM): 102%
- cell viability ([13]; 100 nM): 97%
- cell viability ([13]; 1000 nM): 103%
- cell viability ([13]; 10000 nM): 98.3%
- cell viability ([14]; 1 nM): 106%
- cell viability ([14]; 10 nM): 104%
- cell viability ([14]; 100 nM): 99%
- cell viability ([14]; 1000 nM): 94.8%
- cell viability ([14]; 10000 nM): 97.3%
- cell viability ([15]; 1 nM): 95.5%
- cell viability ([15]; 10 nM): 101%
- cell viability ([15]; 100 nM): 97.9%
- cell viability ([15]; 1000 nM): 106%
- cell viability ([15]; 10000 nM): 104%

SMILES: CO[C@@H]1[C@H](O)[C@@H](CO)O[C@H]1n1cnc2c(NC3CCCCC3)ncnc21 [SDZ-WAG-994]
- relative viability EC50 [1]: > 10 µM
- relative viability EC50 [2]: > 10 µM
- relative viability EC50 [3]: > 10 µM
- relative viability EC50 [4]: > 10 µM
- relative viability EC50 [5]: > 10 µM
- drug sensitivity score [6]: 0
- drug sensitivity score [7]: 0
- drug sensitivity score [8]: 0
- drug sensitivity score [9]: 0
- drug sensitivity score [10]: 0
- cell viability ([11]; 1 nM): 88%
- cell viability ([11]; 10 nM): 93.4%
- cell viability ([11]; 100 nM): 104%
- cell viability ([11]; 1000 nM): 93%
- cell viability ([11]; 10000 nM): 101%
- cell viability ([12]; 1 nM): 88.5%
- cell viability ([12]; 10 nM): 89.5%
- cell viability ([12]; 100 nM): 83.3%
- cell viability ([12]; 1000 nM): 88.3%
- cell viability ([12]; 10000 nM): 109%
- cell viability ([13]; 1 nM): 93.6%
- cell viability ([13]; 10 nM): 100%
- cell viability ([13]; 100 nM): 97%
- cell viability ([13]; 1000 nM): 103%
- cell viability ([13]; 10000 nM): 108%
- cell viability ([14]; 1 nM): 99.5%
- cell viability ([14]; 10 nM): 94.7%
- cell viability ([14]; 100 nM): 97.1%
- cell viability ([14]; 1000 nM): 95.2%
- cell viability ([14]; 10000 nM): 109%
- cell viability ([15]; 1 nM): 84.7%
- cell viability ([15]; 10 nM): 95.4%
- cell viability ([15]; 100 nM): 90%
- cell viability ([15]; 1000 nM): 103%
- cell viability ([15]; 10000 nM): 99.5%
